Test results published in patent US8076351B2, “Camptothecin derivatives with antitumor activity” (Indena S.p.A., priority 2006, dated 2011).
Converted amounts (≈) assume the structure as drawn. Like-named read-outs stand apart in the source and are kept apart here.

How the values were obtained:
[1] = system: NCI-H460 cell line (NSCL cancer); assay: Cell growth inhibition assay (cytotoxicity, cell count); type: cell-based, human
Method: The compounds of the invention were tested in a cytotoxicity assay on a wide spectrum of tumour cells. By way of example, the cytotoxicity data on the NCI-H460 cell line (NSCL cancer) concerning two compounds of formula (I) are reported, using camptothecin and the drugs Topotecan and SN-38 as references:
H460 Cells from human large cell lung tumor were cultured in RPMI-1640 medium containing 10% foetal calf serum. Cell sensitivity was determined by cell growth inhibition assay after 1 or 72 hr drug exposure. The cells in logarithmic growth were collected and seeded in duplicate in 6-wells plates. […] IC50 is defined as the concentration inhibiting by 50% cell growth compared with untreated controls growth.

[2] = target: T1, human recombinant enzyme (full length top1) (Homo sapiens, UniProt P11387); assay: Topoisomerase-I-dependent DNA rupture assay, DNA damage persistence; type: biochemical; conditions: 30 min incubation with 10 μM drug
T1 construct: the human recombinant enzyme (full length top1)
T1 sequence (P11387 1-765): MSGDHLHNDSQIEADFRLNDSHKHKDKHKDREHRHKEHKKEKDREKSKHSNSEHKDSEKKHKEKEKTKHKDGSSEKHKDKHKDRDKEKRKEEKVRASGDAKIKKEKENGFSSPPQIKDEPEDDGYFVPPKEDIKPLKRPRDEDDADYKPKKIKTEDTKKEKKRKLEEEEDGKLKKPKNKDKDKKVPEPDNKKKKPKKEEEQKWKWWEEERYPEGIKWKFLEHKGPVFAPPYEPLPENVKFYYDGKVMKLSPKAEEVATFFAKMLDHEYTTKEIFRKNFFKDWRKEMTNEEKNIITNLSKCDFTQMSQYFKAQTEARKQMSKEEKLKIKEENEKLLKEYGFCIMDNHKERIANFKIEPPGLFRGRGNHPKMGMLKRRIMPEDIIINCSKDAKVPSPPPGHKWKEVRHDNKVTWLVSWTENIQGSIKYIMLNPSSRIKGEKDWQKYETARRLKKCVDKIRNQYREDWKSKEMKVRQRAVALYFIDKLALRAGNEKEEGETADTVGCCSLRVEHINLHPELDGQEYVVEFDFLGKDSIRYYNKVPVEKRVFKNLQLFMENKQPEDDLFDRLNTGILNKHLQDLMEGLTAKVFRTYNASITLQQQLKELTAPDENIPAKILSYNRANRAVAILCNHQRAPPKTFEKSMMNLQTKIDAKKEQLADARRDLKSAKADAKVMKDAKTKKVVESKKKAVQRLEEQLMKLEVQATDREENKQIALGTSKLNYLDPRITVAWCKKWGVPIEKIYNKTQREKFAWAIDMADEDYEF
Method: DNA ruptures were determined using a 751-bp BamHI-EcoRI DNA SV40 purified gel (Beretta G L, Binaschi M, Zagni A N D, Capuani L, Capranico G. Tethering a type IB topoisomerase to a DNA site by enzyme fusion to a heterologous site-selective DNA-binding protein domain. Cancer Res 1999; 59:3689-97). DNA fragments were only labeled at 3′. The DNA rupture reaction (20,000 cpm/sample) was carried out in […] of 10 mM Tris-HCL (pH 7.6), 150 mM KCl, 5 mM MgCl2, 15 μg/mL BSA, 0.1 mM thiothreitol, and the human recombinant enzyme (full length top1) for 30 min at 37° C. The reactions were blocked using 0.5% SDS and 0.3 mg/mL K proteinase for 45 min. at 42° C. DNA damage persistence was tested at different times adding 0.6M NaCl after 30 min. incubation with 10 μM of the drug. After precipitation, DNA was resuspended in denaturation buffer (80% formamide, 10 mM NaOH, 0.01 M EDTA and 1 mg/mL dye) before seeding in desaturating gel (7% polyacrylamide in TBE buffer).

[3] = NCI-H460, H460 human large cell lung tumor cells, 1 or 72 hr drug exposure, counted with Coulter counter 72 hours after exposure, read-out: NCI-H460 IC50 (μg/mL) Cell count
[4] = Time 0 min after adding 0.6M NaCl
[5] = Time 1 min after adding 0.6M NaCl
[6] = Time 5 min after adding 0.6M NaCl
[7] = Time 10 min after adding 0.6M NaCl

SMILES | IC50 [1, 3] | Persitence of DNA damage (%) [2, 4] | Persitence of DNA damage (%) [2, 5] | Persitence of DNA damage (%) [2, 6] | Persitence of DNA damage (%) [2, 7] | IC50 ([1]; Homo sapiens, NCI-H460, read-out: NCI-H460 IC50 (μg/mL) Cell count)
CC[C@@]1(O)C(=O)OCc2c1cc1n(c2=O)Cc2cc3ccccc3nc2-1 [Camptothecin] | 0.115 ± 0.0174 µg/mL (≈ 0.33 µM) | 100% | 58% | 23% | 20% | 
CC[C@@]1(O)C(=O)OCC2=C1C=C1c3nc4ccccc4cc3C3NN=C2N13 (stereo partly drawn) [IDN 6132] | 17 ± 4.25 µg/mL (≈ 47.2 µM) | 100% | 45% | 32% | 20% | 
CC[C@@]1(O)C(=O)OCc2c1cc1c3nc4ccccc4cc3c3nnc2n13 [IDN 6137, triazole[5,4-c]16a-deoxocamptothecin] |  |  |  |  |  | 3.8 ± 1.08 µg/mL (≈ 10.6 µM)
CCc1c2c(nc3ccc(O)cc13)-c1cc3c(c(=O)n1C2)COC(=O)[C@]3(O)CC [SN38, 10-hydroxy-7-ethylcamptothecin] | 0.0865 ± 0.0049 µg/mL (≈ 0.22 µM) | 100% | 60% | 33% | 28% | 
CC[C@@]1(O)C(=O)OCc2c1cc1n(c2=O)Cc2cc3c(CN(C)C)c(O)ccc3nc2-1 [Topotecan] | 0.63 ± 0.44 µg/mL (≈ 1.49 µM) | 100% | 65% | 20% | 10% | 
